Data: US20240018102A1, “COMPOUNDS AND COMPOSITIONS FOR TREATING CONDITIONS ASSOCIATED WITH LPA RECEPTOR ACTIVITY” (Lhotse Bio, Inc., priority 2020, published 2024)

These compounds were tested against T1, human LPA1 (Homo sapiens, UniProt Q92633) (assay: In vitro LPA1 functional antagonist assay (calcium mobilization, FLIPR)). Settings: CHO-K1 cells overexpressing human LPA1; Oleoyl LPA challenge; calcium mobilization on FLIPR Tetra.
T1 construct: expressed in transfected cells; host or cells: CHO-K1
T1 sequence (Q92633 whole entry): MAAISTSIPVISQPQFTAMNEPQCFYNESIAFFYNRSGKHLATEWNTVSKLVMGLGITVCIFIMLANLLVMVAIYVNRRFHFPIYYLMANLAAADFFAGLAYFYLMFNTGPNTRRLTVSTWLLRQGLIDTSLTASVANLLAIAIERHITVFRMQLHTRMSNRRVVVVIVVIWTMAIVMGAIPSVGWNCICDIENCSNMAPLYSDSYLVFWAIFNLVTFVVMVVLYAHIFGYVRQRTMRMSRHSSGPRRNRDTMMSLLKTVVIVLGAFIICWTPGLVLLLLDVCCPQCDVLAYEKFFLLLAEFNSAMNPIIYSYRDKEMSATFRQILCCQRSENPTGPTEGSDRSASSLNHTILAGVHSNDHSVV
Format: cell-based
Description: In Vitro LPA1 Functional Antagonist Assay
CHO-K1 cells overexpressing human LPA1 were seeded in a total volume of 20 μL into black-walled, clear-bottom, Poly-D-lysine coated 384-well microplates and incubated at 37° C. for the appropriate time prior to testing. Assays were performed in 1× Dye Loading Buffer consisting of 1× Dye, 1× Additive A and 2.5 mM Probenecid in HBSS/20 mM Hepes. Probenicid was prepared fresh. Cells were loaded with dye prior to testing. Media was aspirated from cells and replaced with […] Dye Loading Buffer. Cells were incubated for 30-60 minutes at 37° C. After dye loading, cells were removed from the incubator and 10 μL 3× test compound was added. Cells were incubated for 30 minutes at room temperature in the dark to equilibrate plate temperature followed by Oleoyl LPA challenge at the 0.018 M. Compound antagonist activity was measured on a FLIPR Tetra (MDS). Calcium mobilization was monitored for 2 minutes and 10 μL Oleoyl LPA in HBSS/20 mM Hepes was added to the cells 5 seconds into the assay. Compound activity was analyzed using CBIS data analysis suite (ChemInnovation, CA). Percentage inhibition is calculated using the following formula:
% Inhibition=100%×(1−(mean RFU of test sample−mean RFU of vehicle control)/(mean RFU of LPA control−mean RFU of vehicle control)).
COC(=O)c1cn(C[C@H](OC2Cc3ccccc3C2)[C@H](O)c2cc(OC)c(C)c(OC)c2)cc1CC(=O)O [Compound 103a, 2-(1-((2S,3R)-2-((2,3-dihydro-1H-inden-2-yl)oxy)-3-(3,5-dimethoxy-4-methylphenyl)-3-hydroxypropyl)-4-(methoxycarbonyl)-1H-pyrrol-3-yl)acetic acid] was tested, and the IC50 was 0.00474 µM.
In the case of COc1cc([C@@H](O)[C@H](Cc2ccn(CC(=O)O)n2)OC2CCCC2)cc(OC)c1C [Compound 116a], the IC50 is reported as 1.47 µM.
Work on COc1cc([C@@H](O)[C@H](Cc2nc3cc(CC(=O)O)ccc3[nH]2)OC2CCCC2)cc(OC)c1C [Compound 111a, 2-(2-((2S,3R)-2-(cyclopentyloxy)-3-(3,5-dimethoxy-4-methylphenyl)-3-hydroxypropyl)-1H-benzo[d]imidazol-5-yl)acetic acid] yielded an IC50 greater than 10 µM.
COC(=O)c1cn(C[C@H](OCC2CCC2)[C@H](O)c2cc(OC)c(C)c(OC)c2)cc1CC(=O)O [Compound 117a] gave an IC50 of 0.0619 µM.
Compound COc1cc([C@@H](O)[C@H](Cc2nc3cc(CC(=O)O)ccc3n2C)OCC2CCC2)cc(OC)c1C [Compound 120a, 2-[2-[(2S,3R)-2-(cyclobutylmethoxy)-3-(3,5-dimethoxy-4-methyl-phenyl)-3-hydroxy-propyl]-1-methyl-benzimidazol-5-yl]acetic acid] has an IC50 greater than 10 µM.
COC(=O)c1cn(C[C@H](OC2CCCC2)[C@H](O)c2cc(OC)c(C)c(OC)c2)cc1CC(=O)O [Compound 102a, 2-(1-((2S,3R)-2-(cyclopentyloxy)-3-(3,5-dimethoxy-4-methylphenyl)-3-hydroxypropyl)-4-(methoxycarbonyl)-1H-pyrrol-3-yl)acetic acid] was tested, and the IC50 was 0.0145 µM.
O=C(O)c1cccc2cn(C[C@H](OC3CCCC3)[C@H](O)c3ccccc3)nc12 [Compound 136] gave an IC50 greater than 10 µM.
COc1cc([C@@H](O)[C@H](Cc2nc3cc(C(=O)O)ccc3n2C)OCC2CCC2)cc(OC)c1C [Compound 119a, 2-[(2S,3R)-2-(cyclobutylmethoxy)-3-(3,5-dimethoxy-4-methyl-phenyl)-3-hydroxy-propyl]-1-methyl-benzimidazole-5-carboxylic acid] was tested, and the IC50 was greater than 10 µM.
COc1cc([C@@H](O)[C@H](Cc2nc3cc(CC(=O)O)ccc3[nH]2)OC2Cc3ccccc3C2)cc(OC)c1C [Compound 115a, 2-[2-[(2S,3R)-3-(3,5-dimethoxy-4-methyl-phenyl)-3-hydroxy-2-indan-2-yloxy-propyl]-1H-benzimidazol-5-yl]acetic acid] gave an IC50 of 0.0308 µM.
In the case of CCOc1cc([C@@H](O)[C@H](Cn2cc3cccc(C(=O)O)c3n2)OC2CCCC2)ccc1C [Compound 141], the IC50 is reported as 0.193 µM.
Work on COc1cc([C@@H](O)[C@H](Cc2ccc(CC(=O)O)cn2)OCCc2ccccc2)cc(OC)c1C [Compound 106a, 2-(6-((2S,3R)-3-(3,5-dimethoxy-4-methylphenyl)-3-hydroxy-2-phenethoxypropyl)pyridin-3-yl)acetic acid] yielded an IC50 of 0.411 µM.
COC(=O)c1cn(C[C@H](OCCc2ccccc2)[C@H](O)c2cc(OC)c(C)c(OC)c2)cc1CC(=O)O [Compound 104a, 2-(1-((2S,3R)-3-(3,5-dimethoxy-4-methylphenyl)-3-hydroxy-2-phenethoxypropyl)-4-(methoxycarbonyl)-1H-pyrrol-3-yl)acetic acid] was tested, and the IC50 was 0.00524 µM.
In the case of COc1cc([C@@H](O)[C@H](Cc2nc(CC(=O)O)cs2)OC2CCCC2)cc(OC)c1C [Compound 112a, 2-(2-((2S,3R)-2-(cyclopentyloxy)-3-(3,5-dimethoxy-4-methylphenyl)-3-hydroxypropyl)thiazol-4-yl)acetic acid], the IC50 is reported as 0.0561 µM.
COc1cc([C@@H](O)[C@H](Cn2cc3cccc(C(=O)O)c3n2)OC(C)C)cc(OC)c1C [Compound 145] showed an IC50 of 0.0726 µM.
COc1cc([C@@H](O)[C@H](Cn2cc3cccc(C(=O)O)c3n2)OCC2CCC2)cc(OC)c1C [Compound 118a, 2-((2S,3R)-2-(cyclobutylmethoxy)-3-(3,5-dimethoxy-4-methylphenyl)-3-hydroxypropyl)-2H-indazole-7-carboxylic acid] gave an IC50 of 0.0266 µM.
COc1cc([C@@H](O)[C@H](Cn2cc3cccc(C(=O)O)c3n2)OC2CCCC2)ccc1C1CC1 [Compound 125a] showed an IC50 of 0.0807 µM.

Each compound was assayed against T1, human LPA1 (assay: In vitro LPA1 calcium flux antagonist assay, Bioduro protocol). Settings: CHO-K1 cells overexpressing human LPA1 and G15a; LPA challenge at EC80; calcium mobilization on FLIPR Tetra; read-out: IC50 (nM) in Assay B2.
Format: cell-based
Description: In Vitro LPA1 Calcium Flux Antagonist Assay Bioduro Protocol
CHO-K1 cells overexpressing human LPA1 and G15a were seeded at a total volume of 20 uL (15000 cells/well) into Matrigel pre-coated 384-well plates (coming -3764) and incubated at 37° C. After overnight incubation, the cells were serum starved for 4 h. Assays were performed in dye loading buffer containing 1× Fluo-8 AM (AAT Bioquest, 21080) and 2.5 mM probenecid (Thermo Fisher, 36400) in HBSS/20 mM Hepes. After cell starvation, the medium was replaced with 20 uL of dye loading buffer and incubated at 37° C. for 30 min. Then 5 uL of 5× compound titrated in dye loading buffer was added to the cells and incubated for 30 min followed by LPA challenge at EC80. Calcium mobilization was measured on a FLIPR Tetra (MDS). For LPA EC80 determination, starved cells were incubated with 20 uL of dye loading buffer for 1 h, then 5 uL of 5×LPA titrated in dye loading buffer was added to the cells. Calcium signals induced by LPA was monitors on a FLIPR.
Percentage inhibition is calculated using the following formula:
% Inhibition=100%×(1−(mean RFU of test sample−mean RFU of DMSO)/(mean RFU of LPA control−mean RFU of DMSO)).
In the case of COc1c(C)ccc([C@@H](O)[C@H](Cn2cc3nccc(C(=O)O)c3n2)OC2CCCC2)c1F [Compound 193], the IC50 is reported as 757 nM.
Cc1ccc([C@@H](O)[C@H](Cn2cc3cccc(C(=O)O)c3n2)OC2CCCC2)cc1OC(F)(F)F [Compound 150] was tested, and the IC50 was 146 nM.
COc1cc([C@@H](O)[C@H](Cc2nc([C@@H](C)C(=O)O)c(C)s2)OC2CCCC2)cc(OC)c1C (single isomer, unassigned) [Compound 240] showed an IC50 of 885 nM.
Work on COc1cc([C@@H](O)[C@H](Cn2cc3nccc(C(=O)O)c3n2)OC2CCCC2)c(Cl)cc1C [Compound 201] yielded an IC50 of 938 nM.
CCCc1cc(C(=O)O)c2nn(C[C@H](OC3CCCC3)[C@H](O)c3cc(OC)c(C)c(OC)c3)cc2n1 [Compound 219] gave an IC50 of 20.4 nM.
COc1cc([C@@H](O)[C@H](Cn2cc3cccc(C(=O)O)c3n2)OC2CCC(F)(F)CC2)cc(OC)c1C [Compound 149] showed an IC50 of 299 nM.
With COc1cc([C@@H](O)[C@H](Cc2nc(CC(=O)O)c(C)s2)OC2CCCC2)cc(OC)c1C [Compound 177, 2-(2-((2S,3R)-2-(cyclopentyloxy)-3-(3,5-dimethoxy-4-methylphenyl)-3-hydroxypropyl)-5-methylthiazol-4-yl)acetic acid] the IC50 was 154 nM.
With COc1cc([C@@H](O)[C@H](Cc2nc(CC(=O)O)c(C(C)C)s2)OC2CCCC2)cc(OC)c1C [Compound 223] the IC50 was 99.4 nM.
Compound COc1cc(C(=O)O)n2nc(C[C@H](OC3CCCC3)[C@H](O)c3cc(OC)c(C)cc3C)cc2c1 [Compound 238] has an IC50 of 53.3 nM.
CCc1cc(C(=O)O)c2nc(C[C@H](OC3CCCC3)[C@H](O)c3cc(OC)c(C)c(OC)c3)sc2c1 [Compound 255] showed an IC50 of 5.75 nM.
For COc1cc([C@@H](O)[C@H](Cc2nc3c(C(=O)O)cc(C4CC4)cc3s2)OCC(C)C)cc(OC)c1C [Compound 271], the IC50 was 2.19 nM.
Work on COc1cc([C@@H](O)[C@H](Cn2cc3nccc(C(=O)O)c3n2)OC2CCCC2)cc(OC)c1C(F)F [Compound 215] yielded an IC50 of 140 nM.
In the case of COc1cc([C@@H](O)[C@H](Cn2cc3nccc(C(=O)O)c3n2)OC2CCCC2)c(C)cc1C [Compound 188], the IC50 is reported as 447 nM.
With COc1cc([C@@H](O)[C@H](Cn2cc3nccc(C(=O)O)c3n2)OC2CCCC2)cc(OC)c1C [Compound 160, 2-((2S,3R)-2-(cyclopentyloxy)-3-(3,5-dimethoxy-4-methylphenyl)-3-hydroxypropyl)-2H-pyrazolo[4,3-b]pyridine-7-carboxylic acid] the IC50 was 138 nM.
For CCCc1sc(C[C@H](OC2CCCC2)[C@H](O)c2cc(OC)c(C(C)=O)c(OC)c2)nc1C(C)C(=O)O (stereo partly shown) [Compound 272], the IC50 was 71.6 nM.
COc1cc([C@@H](O)[C@H](Cn2cc3nccc(C(=O)O)c3n2)OC2Cc3ccccc3C2)cc(OC)c1C [Compound 185] showed an IC50 of 15 nM.
Work on CCOc1cc([C@@H](O)[C@H](Cn2cc3nccc(C(=O)O)c3n2)OC2CCCC2)cc(OCC)c1C [Compound 203] yielded an IC50 of 530 nM.
COc1cc([C@@H](O)[C@H](Cc2cc3c(OC)ccc(C(=O)O)n3n2)OC2CCCC2)cc(OC)c1C [Compound 237, 2-((2S,3R)-2-(cyclopentyloxy)-3-(3,5-dimethoxy-4-methylphenyl)-3-hydroxypropyl)-4-methoxypyrazolo[1,5-a]pyridine-7-carboxylic acid] gave an IC50 of 10.3 nM.
For COc1cc([C@@H](O)[C@H](Cc2cc3cc(C)cc(C(=O)O)n3n2)OCC(C)C)cc(OC)c1C [Compound 252], the IC50 was 24.5 nM.
CCc1cc(C(=O)O)n2nc(C[C@H](OC3CCCC3)[C@H](O)c3cc(OC)c(C)c(OC)c3)cc2c1 [Compound 251] was tested, and the IC50 was 37.3 nM.
COc1cc([C@@H](O)[C@H](Cc2cc3cc(C4CC4)cc(C(=O)O)n3n2)OCC(C)C)cc(OC)c1C [Compound 242] showed an IC50 of 7.5 nM.
CCCc1sc(C[C@H](OC2CCCC2)[C@H](O)c2cc(OC)c(C)c(OC)c2)nc1CC(=O)O [Compound 179] gave an IC50 of 20.3 nM.
With COc1cc([C@@H](O)[C@H](Cn2cc3nc(C#N)cc(C(=O)O)c3n2)OC2CCCC2)cc(OC)c1C [Compound 212] the IC50 was 10.8 nM.
COc1cc([C@@H](O)[C@H](Cn2cc3ccc(C#N)c(C(=O)O)c3n2)OC2CCCC2)cc(OC)c1C [Compound 180] gave an IC50 of 153 nM.
